{"source": "patent US8088623B2", "about": "“Dominant selection marker for the transformation of fungi” (priority 2003, dated 2012)", "key": {"[1]": {"system": "Pichia pastoris transformant HWA4", "experiment": "Soraphen A sensitivity of transformant HWA4 (accA-D) on MM plates", "type": "cell-based", "conditions": "30° C., six days", "protocol": "(§1) Transformation of spheroplasts was carried out with 10 μg of Sal I-linearized plasmid pAO815-ACC3 or pAO815-ACC4 following the manufacturer's instructions. Transformants were selected on RDB plates and in a second selection round the obtained histidine prototroph clones were tested for Soraphen A sensitivity on MM plates containing Soraphen A (0-0.1 μg/ml)."}, "bacteria or prokaryotes": {"system": "bacteria or prokaryotes", "conditions": "cited from earlier work"}, "[2]": {"system": "MF-ACC purified from rat liver", "conditions": "cited from earlier work"}, "[3]": {"system": "MF-ACC purified from Ustilago maydis", "conditions": "cited from earlier work"}, "[4]": {"system": "Pichia pastoris transformant HWA3p", "conditions": "MM plates, 30° C., six days", "method": "For transformation by electroporation, 3-12 μg of Sal I-linearized plasmid pPIC3.5K-BCCP was mixed with the competent cells and pulsed in 0.1 cm electroporation cuvettes at 1.5 kV, 25 μF, and 200Ω using a Gene Pulser (Bio-Rad). Immediately after the pulse, 1 ml of 1 M sorbitol was added to the cuvette and the cells were incubated for regeneration for 1 hour at room temperature. The cell suspension was aliquoted into two sterile Eppendorf tubes, 0.5 ml of YPD medium or MM medium was added, respectively, and the cells were incubated for 3 more hours at room temperature thereby being shaked. 50-200 μl of the aliquotes in YPD were spread on YPD-G418 plates to select G418 resistant transformants, whereas aliquots in MM medium were spread on MM-agar containing 0.02 μg/ml Soraphen A.\nHistidine prototrophic or G418 resistant transformants were grown overnight in 20 ml MM medium. The cells were harvested by centrifugation and spotted onto MM plates containing different concentrations of Soraphen A (0-0.1 μg/ml). Duplicated plates were incubated at 30° C. for six days under daily addition of methanol."}, "[5]": {"system": "Pichia pastoris transformant HWA3", "experiment": "Soraphen A sensitivity of transformant HWA3 (accA, accC, accD) on MM plates", "type": "cell-based", "conditions": "30° C., six days", "protocol": "as §1"}, "[6]": {"system": "acetyl-CoA carboxylase (ACC) of yeast and filamentous fungi", "conditions": "cited from earlier work"}, "MS-ACC from E. coli": {"target": "T1, MS-ACC from E. coli (Escherichia coli, UniProt P24182)", "T1 construct": "expressed in transfected cells; host or cells: Pichia pastoris GS115 transformed with pAO815-ACC4 (strain HWA4)", "experiment": "Sensitivity of prokaryotic MS-ACC to inhibition"}, "[7]": {"system": "filamentous fungi and yeasts", "conditions": "growth of numerous filamentous fungi and yeasts; cited from earlier work"}, "Ustilago zeae": {"system": "Ustilago zeae", "conditions": "cited from earlier work"}, "Mucor hiemalis": {"system": "Mucor hiemalis", "conditions": "cited from earlier work"}, "[8]": {"system": "Pichia pastoris strain GS115", "experiment": "Soraphen A sensitivity of recipient strain GS115 on MM plates", "type": "cell-based", "conditions": "point and surface inoculation, 30° C., six days", "protocol": "Two methods were used to determine the concentration of Soraphen A inhibitory to the growth of P. pastoris GS115. On the one hand MM plates containing 0 to 0.1 μg/ml Soraphen A were locally inoculated with 10^6 to 10^2 cells. On the other hand 5000 cells were streaked onto such plates. Inokulations were incubated in duplicate at 30° C. for six days; 100 μl of 100% methanol was added daily to the lid of the inverted plates."}}}
{"smiles": "CO[C@H]1CCCC[C@@H](c2ccccc2)OC(=O)[C@@H](C)[C@@]2(O)O[C@H]([C@@H](C)[C@H](O)[C@H]2OC)[C@@H](C)/C=C/[C@H]1OC", "note": "[Soraphen A]", "values": [{"measurement": "Soraphen A concentration not inhibiting growth (undiminished growth)", "setting": "[1]", "value": "> 0.1", "unit": "µg/mL"}, {"measurement": "sensitivity to Soraphen", "setting": "bacteria or prokaryotes", "value": "generally not sensitive"}, {"measurement": "inhibition of MF-ACC activity in vitro", "setting": "[2]", "value": "inhibit"}, {"measurement": "inhibition of MF-ACC activity in vitro", "setting": "[3]", "value": "inhibit"}, {"measurement": "Soraphen A concentration up to which resistance is fully developed", "setting": "[4]", "value": "> 0.1", "unit": "µg/mL"}, {"measurement": "Soraphen A concentration giving no growth", "setting": "[5]", "value": "≤ 0.02", "unit": "µg/mL"}, {"measurement": "inhibition of acetyl-CoA carboxylase (ACC) activity", "setting": "[6]", "value": "inhibits"}, {"measurement": "sensitivity of MS-ACC to inhibition by Soraphen A", "setting": "MS-ACC from E. coli", "value": "insensitive"}, {"measurement": "MIC values", "setting": "[7]", "value": "below 1 ug/ml"}, {"measurement": "MIC value", "setting": "Ustilago zeae", "value": 4, "unit": "µg/mL"}, {"measurement": "MIC value", "setting": "Mucor hiemalis", "value": 0.03, "unit": "µg/mL"}, {"measurement": "Soraphen A concentration leading to complete inhibition of growth", "setting": "[8]", "value": "≤ 0.02", "unit": "µg/mL"}]}
